Experimental data as given in ChEMBL document CHEMBL4402583, “Rational Substitution of ε-Lysine for α-Lysine Enhances the Cell and Membrane Selectivity of Pore-Forming Melittin” (J Med Chem, 2020).
≈ marks a conversion by molar mass, not a printed value. One block for each compound: values may come before it. Calls of active or inactive are those of the source. No cut-off for these calls is given here.

Experiments:
[1] = test system: Lipid bilayer; assay: Binding affinity to zwitterionic DOPC/cholesterol large unilamellar vesicles assessed as transformation of peptide secondary structure to alpha-helical conformation by CD spectropolarimetry
[2] = test system: NHDF; assay: Cytotoxicity against HDF cells at 31.25 ug/ml incubated for 24 hrs by Alexa Fluor […] phalloidin-FITC/Hoescht dye staining based fluorescence microscopic analysis; type: cell-based; details: human
[3] = test system: Pseudomonas aeruginosa; assay: Antibacterial activity against Pseudomonas aeruginosa assessed as reduction in bacterial growth incubated for 24 hrs by broth microdilution method; type: functional
[4] = test system: Candida albicans; assay: Antifungal activity against Candida albicans assessed as reduction in fungal growth incubated for 24 hrs by broth microdilution method; type: functional
[5] = test system: Lipid bilayer; assay: Induction of pore formation in negatively charged DOPE/DOPG large unilamellar vesicles assessed as calcein release at 0.39 to 50 uM measured for 60 mins by fluorescence based assay
[6] = Cytotoxicity against HDF cells assessed as minimum cytotoxic concentration incubated for 24 hrs by Alexa Fluor […] phalloidin-FITC/Hoescht dye staining based fluorescence microscopic analysis; type: cell-based; details: human, HDF cells (NHDF, human dermal fibroblasts)
[7] = test system: Staphylococcus aureus; assay: Antibacterial activity against Staphylococcus aureus assessed as reduction in bacterial growth incubated for 24 hrs by broth microdilution method; type: functional
[8] = test system: NHDF; assay: Cytotoxicity against HDF cells assessed as reduction in metabolic activity at 32 ug/ml incubated for 24 hrs by MTS assay; type: ADME, cell-based; details: human
[9] = test system: Lipid bilayer; assay: Induction of pore formation in negatively charged DOPE/DOPG large unilamellar vesicles assessed as ratio of peptide to lipid molar ratio that induces 50% calcein leakage measured for 60 mins by calcein dequenching based fluorescence based assay
[10] = Cytotoxicity against HDF cells assessed as minimum cytotoxic concentration incubated for 24 hrs by MTS assay; type: cell-based; details: human, HDF cells (NHDF, human dermal fibroblasts)
[11] = test system: Lipid bilayer; assay: Induction of pore formation in zwitterionic DOPC/cholesterol large unilamellar vesicles assessed as calcein release at 0.39 to 50 uM measured for 60 mins by fluorescence based assay
[12] = test system: Staphylococcus aureus; assay: In vivo antibacterial activity against Staphylococcus aureus ATCC 29213 infected in C57BL/6 mouse assessed as reduction in bacterial burden by measuring log10 CFU/cornea at 0.3% administered topically as two times on day 1, four times on day 2 and two times on day 3 measured at 48 hrs post-final dose by 10 fold serial dilution method (reference value: 6.5 +/- 0.7 log10CFU); type: functional
[13] = test system: Acinetobacter baumannii; assay: Antibacterial activity against multidrug-resistant Acinetobacter baumannii assessed as reduction in bacterial growth incubated for 24 hrs by broth microdilution method; type: functional
[14] = test system: Staphylococcus aureus; assay: Antibacterial activity against methicillin-resistance Staphylococcus aureus assessed as reduction in bacterial growth incubated for 24 hrs by broth microdilution method; type: functional
[15] = test system: Enterobacteriaceae; assay: Antibacterial activity against Carbapenem-Resistant Enterobacteriaceae assessed as reduction in bacterial growth incubated for 24 hrs by broth microdilution method; type: functional
[16] = test system: NHDF; assay: Cytotoxicity against HDF cells assessed as truncation and reduction in cytoskeleton at 500 ug/ml incubated for 24 hrs by Alexa Fluor […] phalloidin-FITC/Hoescht dye staining based fluorescence microscopic analysis; type: cell-based; details: human
[17] = test system: Staphylococcus aureus; assay: Antibacterial activity against methicillin-sensitive Staphylococcus aureus assessed as reduction in bacterial growth incubated for 24 hrs by broth microdilution method; type: functional
[18] = test system: Enterococcus; assay: Antibacterial activity against vancomycin-resistant Enterococcus assessed as reduction in bacterial growth incubated for 24 hrs by broth microdilution method; type: functional
[19] = Cytotoxicity against HDF cells assessed as cell viability at 500 ug/ml incubated for 24 hrs by MTS assay relative to control; type: cell-based; details: human, HDF cells (NHDF, human dermal fibroblasts); read-out: Activity

Activity [1]: inactive
MIC [3]: 4 to 16 µg/mL (≈ 1.41 to 5.62 µM)
MIC [4]: 4 to 8 µg/mL (≈ 1.41 to 2.81 µM)
Activity [5]: Active
MIC [7]: 4 to 8 µg/mL (≈ 1.41 to 2.81 µM)
Ratio [9]: 0.24
Activity [11]: Active
SMILES: CC[C@H](C)[C@H](NC(=O)CN)C(=O)NCC(=O)N[C@@H](C)C(=O)N[C@H](C(=O)N[C@@H](CC(C)C)C(=O)N[C@@H](CCCCN)C(=O)N[C@H](C(=O)N[C@@H](CC(C)C)C(=O)N[C@H](C(=O)N[C@H](C(=O)NCC(=O)N[C@@H](CC(C)C)C(=O)N1CCC[C@H]1C(=O)N[C@@H](C)C(=O)N[C@@H](CC(C)C)C(=O)N[C@H](C(=O)N[C@@H](CO)C(=O)N[C@@H](Cc1c[nH]c2ccccc12)C(=O)N[C@H](C(=O)NCCC[C@@H](CN)C(=O)N[C@@H](CCCNC(=N)N)C(=O)N[C@@H](CCCCN)C(=O)N[C@@H](CCCNC(=N)N)C(=O)N[C@@H](CCC(N)=O)C(=O)N[C@@H](CCC(N)=O)C(N)=O)[C@@H](C)CC)[C@@H](C)CC)[C@@H](C)O)[C@@H](C)O)C(C)C)C(C)C
Activity [2]: Toxic
MCC at 24 h [6]: > 16 µg/mL
Activity [8]: Toxic
MCC at 24 h [10]: > 16 µg/mL

SMILES: COc1c(N2C[C@@H]3CCCN[C@@H]3C2)c(F)cc2c(=O)c(C(=O)O)cn(C3CC3)c12 [MOXIFLOXACIN]
Activity [12]: 3.7 log10CFU

SMILES: CC[C@H](C)[C@H](NC(=O)CN)C(=O)NCC(=O)N[C@@H](C)C(=O)N[C@H](C(=O)N[C@@H](CC(C)C)C(=O)NCCC[C@@H](CN)C(=O)N[C@H](C(=O)N[C@@H](CC(C)C)C(=O)N[C@H](C(=O)N[C@H](C(=O)NCC(=O)N[C@@H](CC(C)C)C(=O)N1CCC[C@H]1C(=O)N[C@@H](C)C(=O)N[C@@H](CC(C)C)C(=O)N[C@H](C(=O)N[C@@H](CO)C(=O)N[C@@H](Cc1c[nH]c2ccccc12)C(=O)N[C@H](C(=O)NCCC[C@@H](CN)C(=O)N[C@@H](CCCNC(=N)N)C(=O)NCCC[C@@H](CN)C(=O)N[C@@H](CCCNC(=N)N)C(=O)N[C@@H](CCC(N)=O)C(=O)N[C@@H](CCC(N)=O)C(N)=O)[C@@H](C)CC)[C@@H](C)CC)[C@@H](C)O)[C@@H](C)O)C(C)C)C(C)C
MIC [13]: 4 to 8 µg/mL (≈ 1.41 to 2.81 µM)
MIC50 [13]: 8 µg/mL (≈ 2.81 µM)
MIC50 [14]: 64 µg/mL (≈ 22.5 µM)
MIC [3]: 16 to 64 µg/mL (≈ 5.62 to 22.5 µM)
MIC50 [3]: 32 µg/mL (≈ 11.2 µM)
MIC [4]: 4 to 8 µg/mL (≈ 1.41 to 2.81 µM)
MIC50 [4]: 4 µg/mL (≈ 1.41 µM)
MIC [15]: 4 to 64 µg/mL (≈ 1.41 to 22.5 µM)
MIC50 [15]: 8 µg/mL (≈ 2.81 µM)
Activity [16]: Toxic
MIC [17]: 16 to 128 µg/mL (≈ 5.62 to 45 µM)
MIC50 [17]: 64 µg/mL (≈ 22.5 µM)
MIC [18]: 4 to 16 µg/mL (≈ 1.41 to 5.62 µM)
MIC50 [18]: 8 µg/mL (≈ 2.81 µM)
viability at 24 h, 500 ug/ml [19]: 102%
